These results are taken from patent US20230218557A1, “A FATTY ACID BASED COMPOSITION FOR TREATMENT AND/OR PREVENTION OF ENVELOPED-VIRUS RELATED INFECTIONS” (priority 2020, published 2023).

Assay [1] deals with SARS-CoV-2 virus (WA1/2020) strain. The class given is cell-based. Conditions: for antiviral activity (in words): incubated with SARS-CoV-2; for % viral reduction: virus pre-incubated 10 minutes with sample (conc./dilution per Table 2A), diluted four times, added to vero cells, 48/72 hours, supernatant plaque assay.
Assay [2] has as its system viral particles. The note with it: electron microscopy; cited from earlier work.

For `CC/C=C\C/C=C\C/C=C\CCCCCCCC(=O)O` [ALA, α-linolenic acid], in assay [1], the “antiviral activity (in words)” value was “showed antiviral activity” and the “% viral reduction” value is 97.13%.
With `CCCCC/C=C\C/C=C\C/C=C\CCCCC(=O)O` [GLA, gamma-linolenic acid], in assay [2], the “virucidal effect (in words)” value is “lyse and completely disintegrate viral particles”. Further, in assay [1], the “antiviral activity (in words)” value is “showed antiviral activity” and the “% viral reduction” value turned out to be 96.98%.
As for `CCCCC/C=C\C/C=C\CCCCCCCC(=O)O` [LA, Linoleic acid], the “virucidal effect (in words)” value in assay [2] was “lyse and completely disintegrate viral particles”. Moreover, in assay [1], the “antiviral activity (in words)” value was “showed antiviral activity” and the “% viral reduction” value was determined as 97.42%.
For Triton X100 [reference compound], the “% viral reduction” value in assay [1] amounted to 95.23%.
